Key:
[1] = Permeability from basolateral to apical side of human Caco2 cells; assay type: ADME, cell-based; details: Caco-2, read-out: permeability
[2] = target: Casein kinase I isoform alpha (Homo sapiens) (UniProt P48729); details: 10 uM
Description: Inhibition of CK1 at 10 uM

[3] = Half life in rat liver microsome; assay type: ADME; details: liver microsomes
[4] = target: Angiopoietin-1 receptor (Homo sapiens) (UniProt Q02763); details: 10 uM
Description: Inhibition of Tie2 at 10 uM

[5] = target: T1, cAMP-dependent protein kinase catalytic subunit PRKX (Homo sapiens) (UniProt P51817); details: 10 uM
T1 sequence (whole entry): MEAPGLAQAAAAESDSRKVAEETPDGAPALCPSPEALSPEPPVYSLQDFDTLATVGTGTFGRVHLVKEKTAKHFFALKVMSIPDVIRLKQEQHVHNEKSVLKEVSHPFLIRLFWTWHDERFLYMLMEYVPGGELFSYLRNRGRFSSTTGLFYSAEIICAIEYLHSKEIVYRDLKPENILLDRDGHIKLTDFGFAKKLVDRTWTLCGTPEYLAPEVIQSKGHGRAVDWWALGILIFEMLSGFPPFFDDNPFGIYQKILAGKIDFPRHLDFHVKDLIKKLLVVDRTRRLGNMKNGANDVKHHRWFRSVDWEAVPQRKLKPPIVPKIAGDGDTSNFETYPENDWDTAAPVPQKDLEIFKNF
Description: Inhibition of PRKX at 10 uM

[6] = target: Platelet-derived growth factor receptor alpha (Homo sapiens) (UniProt P16234); details: 10 uM
Sequence of Platelet-derived growth factor receptor alpha (Homo sapiens) (P16234 whole entry): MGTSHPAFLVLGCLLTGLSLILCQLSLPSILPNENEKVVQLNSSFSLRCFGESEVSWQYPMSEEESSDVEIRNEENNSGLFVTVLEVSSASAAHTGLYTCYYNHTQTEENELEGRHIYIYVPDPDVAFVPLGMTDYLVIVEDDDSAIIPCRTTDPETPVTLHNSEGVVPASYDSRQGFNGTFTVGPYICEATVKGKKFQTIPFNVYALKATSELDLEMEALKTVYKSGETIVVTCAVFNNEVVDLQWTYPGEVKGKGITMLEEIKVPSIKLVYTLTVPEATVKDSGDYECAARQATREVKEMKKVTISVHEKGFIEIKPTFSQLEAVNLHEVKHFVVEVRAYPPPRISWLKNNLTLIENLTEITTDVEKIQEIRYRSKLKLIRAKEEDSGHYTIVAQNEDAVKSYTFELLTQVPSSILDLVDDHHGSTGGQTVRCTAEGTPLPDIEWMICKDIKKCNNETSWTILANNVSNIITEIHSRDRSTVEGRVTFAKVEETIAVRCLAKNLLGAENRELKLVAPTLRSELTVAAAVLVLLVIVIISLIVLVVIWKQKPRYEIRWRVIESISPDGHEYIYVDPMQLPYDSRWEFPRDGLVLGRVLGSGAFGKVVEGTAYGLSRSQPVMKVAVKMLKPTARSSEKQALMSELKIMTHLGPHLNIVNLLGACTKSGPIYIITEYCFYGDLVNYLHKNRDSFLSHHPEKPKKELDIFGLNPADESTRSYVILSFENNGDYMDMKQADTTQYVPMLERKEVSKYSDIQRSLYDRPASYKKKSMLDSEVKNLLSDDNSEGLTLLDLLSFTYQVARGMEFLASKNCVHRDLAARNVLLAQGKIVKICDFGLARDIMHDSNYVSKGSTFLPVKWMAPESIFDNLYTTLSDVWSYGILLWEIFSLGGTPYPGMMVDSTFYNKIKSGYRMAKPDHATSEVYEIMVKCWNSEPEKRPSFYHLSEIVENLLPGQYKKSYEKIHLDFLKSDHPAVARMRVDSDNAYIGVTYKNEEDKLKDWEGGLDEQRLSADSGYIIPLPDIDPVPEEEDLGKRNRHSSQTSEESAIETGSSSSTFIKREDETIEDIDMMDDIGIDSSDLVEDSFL
Description: Inhibition of PDGFRA at 10 uM

[7] = Permeability from apical to basolateral side of human Caco2 cells; assay type: ADME, cell-based; details: Caco-2, read-out: permeability
[8] = target: T2, Serine/threonine-protein kinase D2 (Homo sapiens) (UniProt Q9BZL6); details: 10 uM
T2 sequence (whole entry): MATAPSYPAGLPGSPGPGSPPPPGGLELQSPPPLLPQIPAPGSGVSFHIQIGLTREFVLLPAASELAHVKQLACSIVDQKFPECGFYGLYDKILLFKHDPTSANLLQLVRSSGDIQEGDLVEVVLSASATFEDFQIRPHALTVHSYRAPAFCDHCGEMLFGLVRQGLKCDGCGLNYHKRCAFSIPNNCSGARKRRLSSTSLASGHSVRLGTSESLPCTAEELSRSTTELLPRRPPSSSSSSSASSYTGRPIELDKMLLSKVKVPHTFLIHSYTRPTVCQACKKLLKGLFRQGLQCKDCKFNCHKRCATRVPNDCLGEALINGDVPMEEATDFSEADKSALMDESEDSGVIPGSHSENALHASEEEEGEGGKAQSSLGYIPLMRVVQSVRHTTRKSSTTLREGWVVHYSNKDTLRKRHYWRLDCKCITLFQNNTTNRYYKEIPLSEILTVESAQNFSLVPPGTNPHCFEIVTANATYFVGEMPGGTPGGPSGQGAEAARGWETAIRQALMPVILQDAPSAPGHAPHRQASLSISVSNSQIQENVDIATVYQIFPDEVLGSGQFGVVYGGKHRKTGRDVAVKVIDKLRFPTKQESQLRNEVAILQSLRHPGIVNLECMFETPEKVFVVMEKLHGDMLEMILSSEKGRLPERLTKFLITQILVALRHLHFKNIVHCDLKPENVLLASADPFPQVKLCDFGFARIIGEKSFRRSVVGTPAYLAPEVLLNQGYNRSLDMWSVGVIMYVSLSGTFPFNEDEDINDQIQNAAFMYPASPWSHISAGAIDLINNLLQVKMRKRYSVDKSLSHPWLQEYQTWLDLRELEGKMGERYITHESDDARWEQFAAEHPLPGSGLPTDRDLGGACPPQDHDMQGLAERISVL
Description: Inhibition of PKD at 10 uM

[9] = target: Tyrosine-protein kinase Fes/Fps (Homo sapiens) (UniProt P07332); details: 10 uM
Sequence of Tyrosine-protein kinase Fes/Fps (Homo sapiens) (P07332 whole entry): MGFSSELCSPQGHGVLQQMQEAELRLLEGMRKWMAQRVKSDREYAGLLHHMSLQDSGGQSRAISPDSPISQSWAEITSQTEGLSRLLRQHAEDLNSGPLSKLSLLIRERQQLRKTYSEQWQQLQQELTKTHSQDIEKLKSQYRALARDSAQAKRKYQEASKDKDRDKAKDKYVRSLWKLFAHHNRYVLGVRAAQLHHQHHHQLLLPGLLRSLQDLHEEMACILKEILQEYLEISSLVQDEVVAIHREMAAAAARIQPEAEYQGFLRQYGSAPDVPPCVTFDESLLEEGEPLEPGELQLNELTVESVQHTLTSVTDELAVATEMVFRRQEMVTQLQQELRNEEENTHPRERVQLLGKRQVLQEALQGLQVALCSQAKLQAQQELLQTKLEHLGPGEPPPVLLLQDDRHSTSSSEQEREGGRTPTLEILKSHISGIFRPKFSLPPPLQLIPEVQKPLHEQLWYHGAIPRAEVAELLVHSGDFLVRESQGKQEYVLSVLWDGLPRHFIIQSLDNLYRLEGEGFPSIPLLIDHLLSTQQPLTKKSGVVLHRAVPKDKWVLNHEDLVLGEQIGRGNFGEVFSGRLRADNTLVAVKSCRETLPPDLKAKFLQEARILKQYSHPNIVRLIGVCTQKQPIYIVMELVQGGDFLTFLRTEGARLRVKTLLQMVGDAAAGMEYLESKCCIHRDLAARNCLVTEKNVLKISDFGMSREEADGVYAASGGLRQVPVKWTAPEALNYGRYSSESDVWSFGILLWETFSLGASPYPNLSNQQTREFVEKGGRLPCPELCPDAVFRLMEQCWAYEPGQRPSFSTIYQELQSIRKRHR
Description: Inhibition of FES at 10 uM

[10] = target: Serine/threonine-protein kinase PLK3 (Homo sapiens) (UniProt Q9H4B4); details: 10 uM
Sequence of Serine/threonine-protein kinase PLK3 (Homo sapiens) (Q9H4B4 whole entry, looked up): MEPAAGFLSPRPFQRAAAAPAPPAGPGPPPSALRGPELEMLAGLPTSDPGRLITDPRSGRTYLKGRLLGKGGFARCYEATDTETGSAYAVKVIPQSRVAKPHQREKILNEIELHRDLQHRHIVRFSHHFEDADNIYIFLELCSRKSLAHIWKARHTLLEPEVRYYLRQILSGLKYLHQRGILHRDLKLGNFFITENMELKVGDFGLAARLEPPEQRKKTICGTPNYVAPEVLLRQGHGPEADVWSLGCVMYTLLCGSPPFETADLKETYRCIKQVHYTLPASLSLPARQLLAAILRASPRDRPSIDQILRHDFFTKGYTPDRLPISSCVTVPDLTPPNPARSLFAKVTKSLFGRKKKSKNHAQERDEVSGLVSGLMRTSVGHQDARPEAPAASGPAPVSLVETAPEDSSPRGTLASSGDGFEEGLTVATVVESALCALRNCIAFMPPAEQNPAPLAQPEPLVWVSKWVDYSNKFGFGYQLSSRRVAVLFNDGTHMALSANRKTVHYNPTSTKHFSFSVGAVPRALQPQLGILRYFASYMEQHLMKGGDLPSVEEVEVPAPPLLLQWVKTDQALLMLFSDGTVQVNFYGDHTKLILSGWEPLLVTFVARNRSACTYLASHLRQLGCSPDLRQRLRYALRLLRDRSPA
Description: Inhibition of PLK3 at 10 uM

[11] = target: T3, Ephrin type-A receptor 8 (Homo sapiens) (UniProt P29322); details: 10 uM
T3 sequence (whole entry): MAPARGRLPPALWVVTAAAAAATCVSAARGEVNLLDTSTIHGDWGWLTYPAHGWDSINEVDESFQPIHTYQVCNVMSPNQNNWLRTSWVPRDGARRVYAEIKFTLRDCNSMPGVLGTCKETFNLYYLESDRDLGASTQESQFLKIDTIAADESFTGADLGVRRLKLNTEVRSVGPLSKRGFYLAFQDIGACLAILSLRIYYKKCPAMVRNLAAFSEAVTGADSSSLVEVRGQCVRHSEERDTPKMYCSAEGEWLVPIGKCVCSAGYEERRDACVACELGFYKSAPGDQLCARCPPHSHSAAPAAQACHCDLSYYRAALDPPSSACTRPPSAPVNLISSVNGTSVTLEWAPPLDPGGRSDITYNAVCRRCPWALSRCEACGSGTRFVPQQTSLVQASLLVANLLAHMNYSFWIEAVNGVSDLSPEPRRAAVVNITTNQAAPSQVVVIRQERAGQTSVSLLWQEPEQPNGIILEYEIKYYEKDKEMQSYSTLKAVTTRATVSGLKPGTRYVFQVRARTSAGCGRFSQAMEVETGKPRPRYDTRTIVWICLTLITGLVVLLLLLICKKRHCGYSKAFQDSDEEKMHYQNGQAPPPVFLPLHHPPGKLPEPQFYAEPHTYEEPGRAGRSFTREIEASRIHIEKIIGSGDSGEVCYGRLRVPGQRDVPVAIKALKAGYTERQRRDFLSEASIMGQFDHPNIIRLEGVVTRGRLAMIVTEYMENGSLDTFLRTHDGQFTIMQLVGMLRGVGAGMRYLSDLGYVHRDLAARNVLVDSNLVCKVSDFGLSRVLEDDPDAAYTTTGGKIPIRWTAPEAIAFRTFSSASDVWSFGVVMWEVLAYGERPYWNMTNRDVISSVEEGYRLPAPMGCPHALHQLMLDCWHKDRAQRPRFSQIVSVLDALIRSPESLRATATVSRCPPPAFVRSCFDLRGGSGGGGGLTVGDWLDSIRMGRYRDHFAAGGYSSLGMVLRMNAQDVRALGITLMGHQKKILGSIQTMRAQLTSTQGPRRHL
Description: Inhibition of EPHA8 at 10 uM

[12] = Half life in mouse liver microsome; assay type: ADME; details: liver microsomes
[13] = Volume of distribution at steady state in C57 mouse; assay type: ADME, organism-based; details: in vivo, read-out: Vdss

Sequence of Angiopoietin-1 receptor (Homo sapiens) (Q02763 whole entry): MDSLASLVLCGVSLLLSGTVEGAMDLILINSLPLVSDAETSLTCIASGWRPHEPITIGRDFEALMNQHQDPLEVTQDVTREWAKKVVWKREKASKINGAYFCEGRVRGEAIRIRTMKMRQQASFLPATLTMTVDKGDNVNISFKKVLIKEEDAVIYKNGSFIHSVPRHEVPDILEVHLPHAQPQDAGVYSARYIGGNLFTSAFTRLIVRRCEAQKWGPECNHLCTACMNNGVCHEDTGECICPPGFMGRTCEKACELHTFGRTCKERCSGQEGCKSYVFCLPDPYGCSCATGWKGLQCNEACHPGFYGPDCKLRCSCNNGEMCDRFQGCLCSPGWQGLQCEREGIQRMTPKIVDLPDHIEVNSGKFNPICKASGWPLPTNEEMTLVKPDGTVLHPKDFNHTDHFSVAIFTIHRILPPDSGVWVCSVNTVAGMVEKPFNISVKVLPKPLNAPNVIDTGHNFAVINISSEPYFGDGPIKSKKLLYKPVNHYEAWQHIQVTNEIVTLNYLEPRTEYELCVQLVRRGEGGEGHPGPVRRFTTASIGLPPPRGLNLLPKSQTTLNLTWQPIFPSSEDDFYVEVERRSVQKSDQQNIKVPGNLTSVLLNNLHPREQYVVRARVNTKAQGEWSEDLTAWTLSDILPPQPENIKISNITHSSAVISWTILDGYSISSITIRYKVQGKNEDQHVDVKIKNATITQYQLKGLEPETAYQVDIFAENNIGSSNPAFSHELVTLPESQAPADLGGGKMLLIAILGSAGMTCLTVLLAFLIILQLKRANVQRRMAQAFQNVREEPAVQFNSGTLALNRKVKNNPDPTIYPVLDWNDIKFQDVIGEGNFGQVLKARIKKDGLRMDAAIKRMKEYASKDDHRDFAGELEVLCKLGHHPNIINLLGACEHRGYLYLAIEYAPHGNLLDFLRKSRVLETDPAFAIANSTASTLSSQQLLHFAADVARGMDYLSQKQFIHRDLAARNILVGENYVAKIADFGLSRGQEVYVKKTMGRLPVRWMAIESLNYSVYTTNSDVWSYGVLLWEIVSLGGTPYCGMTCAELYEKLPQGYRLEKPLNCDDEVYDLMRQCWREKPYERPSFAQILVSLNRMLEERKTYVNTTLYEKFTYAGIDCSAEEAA
Sequence of Casein kinase I isoform alpha (Homo sapiens) (P48729 2-337 limits assumed): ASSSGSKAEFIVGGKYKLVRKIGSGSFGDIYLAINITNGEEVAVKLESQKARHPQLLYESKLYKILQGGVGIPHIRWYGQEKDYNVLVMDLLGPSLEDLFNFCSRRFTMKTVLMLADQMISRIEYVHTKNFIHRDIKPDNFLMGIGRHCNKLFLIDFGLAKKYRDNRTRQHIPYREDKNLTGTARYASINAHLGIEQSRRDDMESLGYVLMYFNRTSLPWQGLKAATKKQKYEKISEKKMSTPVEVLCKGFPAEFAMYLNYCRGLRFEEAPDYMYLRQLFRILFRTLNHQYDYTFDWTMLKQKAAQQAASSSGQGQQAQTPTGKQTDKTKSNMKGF

- Papp B→A [1]: 3.6 ×10⁻⁶ cm/s
- inhibition [2]: > 80%
- half-life [3]: > 2 h
- inhibition [4]: > 80%
- inhibition [5]: > 80%
- inhibition [6]: > 80%
- Papp A→B [7]: 6.3 ×10⁻⁶ cm/s
- inhibition [8]: > 80%
- inhibition [9]: > 80%
- inhibition [10]: > 80%
- inhibition [11]: > 80%
- half-life [12]: > 2 h
- Vd [13]: 11 L/kg
SMILES: Nc1nccc2cc(O[C@H]3CCCNC3)ccc12

— ChEMBL document CHEMBL1641363, “Fragment-based discovery of 6-substituted isoquinolin-1-amine based ROCK-I inhibitors” (Bioorg Med Chem Lett, 2011)
